The first data set can be described thus: Solubility of the complex in water and alcohols. In kind it is physicochemical. As to conditions: methanol, ethanol, water/alcohol mixture.
In the case of `CC(C)c1cccc(C(C)C)c1N1CCN(c2c(C(C)C)cccc2C(C)C)[CH]1[Ru]([Cl])([Cl])=[CH]c1ccccc1OC1CC[N+](C)(C)CC1` [Complex 48], the “Solubility in methanol, ethanol and water/alcohol mixture, in words” value is given as “excellent solubility”.

The same data set, now with this note: neat / pure water.
As for `CC(C)c1cccc(C(C)C)c1N1CCN(c2c(C(C)C)cccc2C(C)C)[CH]1[Ru]([Cl])([Cl])=[CH]c1ccccc1OC1CC[N+](C)(C)CC1` [Complex 48], the “Solubility in water, in words” value is reported as “Insoluble”.

The data set is the same for the next values; noted with them: water.
The molecule `Cc1cc(C)c(N2CC(C[N+](C)(C)C)N(c3c(C)cc(C)cc3C)[CH]2[Ru]([Cl])([Cl])=[CH]c2cc([N+](=O)[O-])ccc2OC(C)C)c(C)c1` (stereo not drawn) [Complex 50] returned a Water solubility of 3000 µg/mL.

Consider `Cc1cc(C)c(N2CC(C[N+](C)(C)C)N(c3c(C)cc(C)cc3C)[CH]2[Ru]([Cl])([Cl])=[CH]c2ccccc2OC2CC[N+](C)(C)CC2)c(C)c1` (stereo not drawn) [Complex 51], for which the Water solubility worked out at 35000 µg/mL.

`CC[N+]1(C)CCN(CC2CN(c3c(C)cc(C)cc3C)[CH]([Ru]([Cl])([Cl])=[CH]c3ccccc3OC(C)C)N2c2c(C)cc(C)cc2C)CC1` (stereo not drawn) [Complex 52] yielded a Water solubility of 3000 µg/mL.

`CC[N+]1(C)CCN(CC2CN(c3c(C)cc(C)cc3C)[CH]([Ru]([Cl])([Cl])=[CH]c3ccccc3OC3CC[N+](C)(C)CC3)N2c2c(C)cc(C)cc2C)CC1` (stereo not drawn) [Complex 53] returned a Water solubility of 35000 µg/mL.

For `CC(C)Oc1ccccc1[CH]=[Ru]([Cl])([Cl])[CH]1N(c2c(C(C)C)cc(C[N+]3(C)CCOCC3)cc2C(C)C)CCN1c1c(C(C)C)cc(C[N+]2(C)CCOCC2)cc1C(C)C` [Complex 54], the Water solubility turned out to be 2000 µg/mL. The same measure, in the same setting: then `CC(C)c1cc(C[N+]2(C)CCOCC2)cc(C(C)C)c1N1CCN(c2c(C(C)C)cc(C[N+]3(C)CCOCC3)cc2C(C)C)[CH]1[Ru]([Cl])([Cl])=[CH]c1ccccc1OC1CC[N+](C)(C)CC1` [Complex 55], with 65000 µg/mL; and `Cc1cc(C)c(N2CCN(c3c(C)cc(C)cc3C)[CH]2[Ru]([Cl])([Cl])=[CH]c2cc([N+](C)(C)C)ccc2OC(C)C)c(C)c1` [Complex 56], with 1000 µg/mL.
